pEC50: −log10 of the molar value. Values joined by “and” are separate entries in the source; they are usually repeats but may differ in a detail not shown here. Equal values may be shown once.
Assays:
HDAC1,2,3,6,8 = assay: HDAC-Glo assay (panel); format: biochemical, human
Procedure: (§1) To validate the inhibition of HDACs by LA and LM and elaborate on the structure-activity relationship (SAR) of enantiomers as well as oxidized versus reduced forms of the molecules, we performed enzyme activity assays for recombinant HDAC1,2,3,6,8 as well as FRET-based binding assay for recombinant HDAC10.
(§2) The experiments were performed according to ref. [48]. […] Drug dosing was performed with a D300e Digital Dispenser (Tecan). HDACs (7 ng/mL for HDAC1, 25 ng/mL for HDAC2, 200 ng/mL for HDAC3/Ncor2 complex, 100 ng/mL for HDAC6, 200 ng/mL for HDAC8) and inhibitors were incubated together at room temperature (RT) for 30 min. After the addition of the HDAC-Glo™ I/II reagent, plates were shaken (800 rpm orbital shaker, 30 s), centrifuged (300 g, 1 min), and incubated at RT for 30 min. Luminescence was detected with a CLARIOstar (BMG Labtech) plate reader.

HDAC1 = HDAC1 (Homo sapiens, UniProt Q13547); assay: HDAC-Glo assay; format: biochemical; set-up: purchased BPS Bioscience 50051
HDAC1, sequence (Q13547 whole entry): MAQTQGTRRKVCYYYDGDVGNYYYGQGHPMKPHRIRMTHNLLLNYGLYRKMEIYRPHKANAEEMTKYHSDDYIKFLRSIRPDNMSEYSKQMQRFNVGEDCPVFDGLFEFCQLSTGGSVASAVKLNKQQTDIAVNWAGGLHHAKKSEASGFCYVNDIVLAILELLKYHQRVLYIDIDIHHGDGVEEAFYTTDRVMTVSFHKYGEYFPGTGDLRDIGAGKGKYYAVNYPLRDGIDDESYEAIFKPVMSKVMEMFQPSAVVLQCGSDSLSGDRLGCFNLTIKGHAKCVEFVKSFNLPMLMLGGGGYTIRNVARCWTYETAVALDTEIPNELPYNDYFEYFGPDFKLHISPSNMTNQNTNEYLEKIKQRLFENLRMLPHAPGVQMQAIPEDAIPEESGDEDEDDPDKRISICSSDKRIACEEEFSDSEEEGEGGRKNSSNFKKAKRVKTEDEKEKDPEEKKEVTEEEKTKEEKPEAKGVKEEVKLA
Procedure: as §1, §2

HDAC8 = target: T1, HDAC8 (Homo sapiens, UniProt Q9BY41); assay: Chemoproteomic competition pulldown assay; format: binding; set-up: endogenous in cells; host or cells: SW620 lysate; conditions: iQ; for relative binding vs DMSO: SW620 lysate
T1 sequence (Q9BY41 1-377): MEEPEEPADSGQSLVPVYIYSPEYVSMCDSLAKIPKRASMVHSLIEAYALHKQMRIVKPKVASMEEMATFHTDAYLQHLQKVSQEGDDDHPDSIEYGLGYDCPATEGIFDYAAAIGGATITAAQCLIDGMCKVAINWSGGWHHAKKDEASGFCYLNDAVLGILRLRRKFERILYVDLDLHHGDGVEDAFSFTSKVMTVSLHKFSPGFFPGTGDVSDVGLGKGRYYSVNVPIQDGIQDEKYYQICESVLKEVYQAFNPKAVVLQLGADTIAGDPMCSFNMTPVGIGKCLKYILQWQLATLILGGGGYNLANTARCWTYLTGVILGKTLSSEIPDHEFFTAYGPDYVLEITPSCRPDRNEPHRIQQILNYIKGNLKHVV
Procedure: To identify proteins directly bound by lipoic acid, we employed a chemoproteomic competition assay. Briefly, (R/S)-LA was immobilized on sepharose beads via an amidation reaction to form an affinity matrix (abbreviated as iL; Fig. 1a). This affinity matrix can be incubated with cell lysate to pull down potential LA or LM target proteins and identify these targets via bottom-up proteomics. In a competition assay, free LA or LM were incubated with lysate at different concentrations before pulling down and quantifying target proteins. […] (Fig. 1b, see “Methods” for details). […] The lysate buffer used in this assay contains 1 mM DTT to mimic the intracellular reductive milieu and to reduce lipoic acid and LM. […] Additional competition assays performed in lung adenocarcinoma cell A549 lysate also identified HDAC1, HDAC2, and HDAC6 as targets (Supplementary Fig. 1b). Amongst the three cell lines tested, HDACs were the only confidently identified targets across the 1500–3000 proteins quantified in these assays. […] We validated the results by analogous pulldown competition assays using two other affinity matrices prepared via the immobilization of either the HDAC inhibitor Quisinostat (iQ) and an analog of the class IIa HDAC inhibitor Bürli’s 31[14] (iC)[12]. We have previously shown that these affinity matrices specifically bind to the active sites of HDACs and have used them for HDACi selectivity profiling. Indeed, binding of (R/S)-LA and (R/S)-LM to HDAC1, HDAC2, HDAC3, HDAC6, and, to a lesser extent, HDAC8 was confirmed in these assays (Supplementary Fig. 1c, d). No binding to class IIa HDACs or the recently discovered common HDAC inhibitor off-target MBLAC2 was observed (Supplementary Fig. 1e)[12]. […] This observation might reflect electrostatic repulsion between the HDAC10 active site gate-keeper glutamic acid residues[15],[16] and the terminal carboxylic acid of LA.
To assess the degree of protein depletion from lysates by the affinity matrix, a second pulldown (PDPD) with fresh beads was performed using the unbound protein fraction from the vehicle control flow through. The beads were washed (1 × 1 mL of lysis buffer without inhibitors and only 0.4% Igepal, 2 × 2 mL of lysis buffer without inhibitors and only 0.2% Igepal), and captured proteins were denatured with 8 M urea buffer, alkylated with 55 mM chloroacetamide and digested with Trypsin according to standard procedures. The resulting peptides were desalted on a C18 filter plate (Sep-Pak® tC18 µElution Plate, Waters), vacuum dried, and stored at −20 °C until LC–MSMS measurement.
For the competition assays, relative binding was calculated based on the protein intensity ratio to the DMSO control for every single inhibitor concentration. EC50 values were derived from a four-parameter log-logistic regression with variable slope (constrain: bottom > 0). The obtained EC50 values were multiplied with a protein-dependent correction factor (cf), resulting in the apparent Kd value (Kd^app). The correction factor is determined by calculating the ratio of the protein intensity of two consecutive pulldowns of the vehicle control sample[13]. Targets of the inhibitors were annotated manually according to published procedures[12],[46],[47]. […] Additionally, the number of unique peptides and MSMS counts per condition were taken into account. Positive target binding across several independent experiments performed with different cell lysates further substantiated our confidence for a true positive drug-target binding event.

[1] = 0.5 M TCEP, log10 M -3.30103, 3 technical replicates
[2] = 0.5 M TCEP, log10 M -3.82945, 3 technical replicates
[3] = 0.5 M TCEP, log10 M -4.35788, 3 technical replicates
[4] = 0.5 M TCEP, log10 M -4.88629, 3 technical replicates
[5] = 0.5 M TCEP, log10 M -5.41477, 3 technical replicates
[6] = 0.5 M TCEP, log10 M -5.94309, 3 technical replicates
[7] = 0.5 M TCEP, log10 M -6.47756, 3 technical replicates
[8] = 0.5 M TCEP, log10 M -6.87615, 3 technical replicates

O=C(O)CCCCC1CCSS1 (racemic) [(R/S)-LA, (R/S)-lipoic acid]
HDAC inhibition by the oxidized form (HDAC1,2,3,6,8; absence of TCEP): diminished activity | pEC50 (HDAC1,2,3,6,8; with TCEP, range over HDAC1,2,3,6,8, read-out: EC50 of HDAC inhibition, reduced form): 4.36 to 6.00 | HDAC enzymatic activity (normalized luminescence) (HDAC1; [1]): 2.253 and 2.122 and 2.222 | raw luminescence signal, HDAC1 inhibition (HDAC1; [1]): 9033 and 8544 and 8916 | HDAC enzymatic activity (normalized luminescence) (HDAC1; [2]): 6.603 and 6.6 and 6.7561 | raw luminescence signal, HDAC1 inhibition (HDAC1; [2]): 25221 and 25211 and 25792 | HDAC enzymatic activity (normalized luminescence) (HDAC1; [3]): 20.3513 and 20.4988 and 20.2352 | raw luminescence signal, HDAC1 inhibition (HDAC1; [3]): 76389 and 76938 and 75957 | HDAC enzymatic activity (normalized luminescence) (HDAC1; [4]): 44.8545 and 45.009 and 46.4019 | raw luminescence signal, HDAC1 inhibition (HDAC1; [4]): 167582 and 168157 and 173341 | HDAC enzymatic activity (normalized luminescence) (HDAC1; [5]): 75.7737 and 78.1543 and 78.9575 | raw luminescence signal, HDAC1 inhibition (HDAC1; [5]): 282653 and 291513 and 294502 | HDAC enzymatic activity (normalized luminescence) (HDAC1; [6]): 89.586 and 92.205 and 92.7553 | raw luminescence signal, HDAC1 inhibition (HDAC1; [6]): 334058 and 343805 and 345853 | HDAC enzymatic activity (normalized luminescence) (HDAC1; [7]): 95.6344 and 96.1277 and 99.0353 | raw luminescence signal, HDAC1 inhibition (HDAC1; [7]): 356568 and 358404 and 369225 | HDAC enzymatic activity (normalized luminescence) (HDAC1; [8]): 97.1294 and 100.284 and 101.314 | raw luminescence signal, HDAC1 inhibition (HDAC1; [8]): 362132 and 373872 and 377707 | HDAC enzymatic activity (normalized luminescence) (HDAC1; no TCEP, log10 M -3.30103, 3 technical replicates): 34.5758 and 34.0329 and 33.4507 | HDAC enzymatic activity (normalized luminescence) (HDAC1; no TCEP, log10 M -3.82945, 3 technical replicates): 69.9436 and 70.5688 and 71.7678 | HDAC enzymatic activity (normalized luminescence) (HDAC1; no TCEP, log10 M -4.35788, 3 technical replicates): 91.6791 and 90.2694 and 91.9437 | HDAC enzymatic activity (normalized luminescence) (HDAC1; no TCEP, log10 M -4.88629, 3 technical replicates): 97.2441 and 96.7873 and 98.245 | HDAC enzymatic activity (normalized luminescence) (HDAC1; no TCEP, log10 M -5.41477, 3 technical replicates): 102.844 and 103.267 and 105.666 | HDAC enzymatic activity (normalized luminescence) (HDAC1; no TCEP, log10 M -5.94309, 3 technical replicates): 103.58 and 104.044 and 104.328 | HDAC enzymatic activity (normalized luminescence) (HDAC1; no TCEP, log10 M -6.47756, 3 technical replicates): 103.305 and 103.257 and 103.904 | HDAC enzymatic activity (normalized luminescence) (HDAC1; no TCEP, log10 M -6.87615, 3 technical replicates): 102.627 and 100.722 and 100.875 | EC50 (HDAC1; read-out: log EC50 from dose-dependent HDAC inhibition curves (converted)): 11.4 µM | HDAC1 relative activity (HDAC1; sheet S2b, log conc -3.30103): 1.283 and 1.298 and 1.278 | HDAC1 relative activity (HDAC1; sheet S2b, log conc -3.82945): 3.514 and 3.391 and 3.355 | HDAC1 relative activity (HDAC1; sheet S2b, log conc -4.35788): 11.0684 and 11.0093 and 10.6578 | HDAC1 relative activity (HDAC1; sheet S2b, log conc -4.88629): 24.6308 and 24.7045 and 25.3305 | HDAC1 relative activity (HDAC1; sheet S2b, log conc -5.41477): 53.4112 and 53.3483 and 54.8189 | HDAC1 relative activity (HDAC1; sheet S2b, log conc -5.94309): 78.0321 and 77.9262 and 78.089 | HDAC1 relative activity (HDAC1; sheet S2b, log conc -6.47756): 94.813 and 93.3015 and 93.5028 | HDAC1 relative activity (HDAC1; sheet S2b, log conc -6.87615): 93.4945 and 92.0736 and 92.8885 | HDAC1 relative activity (HDAC1; sheet S2d, log conc -3.30103): 2.253 and 2.122 and 2.222 | HDAC1 relative activity (HDAC1; sheet S2d, log conc -3.82945): 6.603 and 6.6 and 6.7561 | HDAC1 relative activity (HDAC1; sheet S2d, log conc -4.35788): 20.3513 and 20.4988 and 20.2352 | HDAC1 relative activity (HDAC1; sheet S2d, log conc -4.88629): 44.8545 and 45.009 and 46.4019 | HDAC1 relative activity (HDAC1; sheet S2d, log conc -5.41477): 75.7737 and 78.1543 and 78.9575 | HDAC1 relative activity (HDAC1; sheet S2d, log conc -5.94309): 89.586 and 92.205 and 92.7553 | HDAC1 relative activity (HDAC1; sheet S2d, log conc -6.47756): 95.6344 and 96.1277 and 99.0353 | HDAC1 relative activity (HDAC1; sheet S2d, log conc -6.87615): 97.1294 and 100.284 and 101.314 | Kd (HDAC8; SW620, read-out: pKdapp (converted)): 39.8 µM | relative binding vs DMSO (HDAC8; log10 M -3.52288): 0.618 | relative binding vs DMSO (HDAC8; log10 M -4): 0.6642 | relative binding vs DMSO (HDAC8; log10 M -4.52288): 1.003 | relative binding vs DMSO (HDAC8; log10 M -5): 1.048 | relative binding vs DMSO (HDAC8; log10 M -5.52288): 1.024 | relative binding vs DMSO (HDAC8; log10 M -6): 1.06 | relative binding vs DMSO (HDAC8; log10 M -6.52288): 0.9713 | relative binding vs DMSO (HDAC8; log10 M -7): 1.01

Source: PMC10272112 (Nature Communications, 2023)
